Values after ≈ are worked out from the molar mass of the structure shown. Where two headings read alike, the source gives them in different places.
Legend:
PBP = PBP (Escherichia coli, UniProt P02919); experiment: PBP binding affinity by SPR; settings: read-out: steady-state affinity (KD)
Text: Candidate compounds to be tested were labeled with fluorescein (6-carboxyfluoresein N-hydroxysuccinimide ester) under basic conditions to prepare the fluorescent probe. One major concern about the fluorescent probe used in the FA assay is the probe itself; either the fluorophore or the structure modification, may interfere with the binding between the targeted protein and the small molecule. Therefore, the PBP binding affinities of Moe A and the fluorescent probe are compared using SPR.

[1] = system: Staphylococcus aureus (ATCC29213, SA); experiment: Minimal inhibitory concentration (MIC), SA; type: cell-based; settings: for MIC SA: Staphylococcus aureus ATCC29213; for MIC: Staphylococcus aureus
Description: (§1) The minimal inhibitory concentration (MIC) of tested compounds was determined following the NCCLS standard. The experiments were conducted in 96-well microtiter plates using two-fold dilutions in Muller-Hilton broth with (Streptococcus pneumonia) or without blood (Bacillus subtilis, Enterococcus faecalis, Staphylococcus aureus, Escherichia coli, MRSA, Actinetobacter baumannii, Pseudomonas aeruginosa, Stenotrophomonas maltophilia, and Mycobacterium smegmatis). Exponentially growing cells at 5×10^5 cells/ml were incubated with test compounds at various concentrations. After an 18 h to 24 h incubation at 37° C., MIC was determined as the minimal concentration of the compound that prevents bacterial growth.

[2] = target: T1, penicillin-binding protein 1b from E. coli (transglycosylase) (Escherichia coli, UniProt P02919); experiment: Lipid II polymerization / transglycosylase (TG) activity assay; type: biochemical; settings: for remaining activity at 100 µM: read-out: TG Activity at various concentration of cmpd: 100 μM
T1 construct: PBP1b[58-804] was amplified from E. coli genomic DNA and cloned into the expression vector pET15b; His6 (N, cleaved yes); made in house; host or cells: E. coli BL21(DE3)
Description: Lipid II polymerization assays were carried out by incubating 100 μM fluorophore-labeled lipid II and penicillin-binding protein 1b from E. coli in tubes containing 10 ng/μL N-acetyl muramidase in 50 mM Tris.HCl (pH 8.0), 10 mM MgCl2, 0.1% Triton X-100, 10% DMSO, and 15% MeOH for 30 minutes (Van Nieuwenhze et al. J Am Chem Soc 2002, 124, 3656.). The fluorophore can be dansyl chloride, NBD, BODIPY, fluorescein. Reaction supernatants were then injected onto an anion-exchange HPLC column (SAX1, Supelco Co.) and eluted with a linear gradient of ammonium acetate (20 mM to 0.5 M) in methanol. The eluant was monitored for fluorescence with λex=466 nm and λem=535 nm.
Purified protein was concentrated in 20 mM Tris-HCl (pH 8.0), 300 mM NaCl, and 1 mM DDM. Instead of using Dansyl lipid II, 6-(N-(7-nitrobenz-2-oxa-1,3-diazol-4-yl)amino) hexanoyl (NBD)-labeled Lipid II was prepared as described (Taubes G (2008) Science 321:356-361; Payne D J (2008) Science 321:1644-1645) and used as a substrate to measure TG enzymatic activity, with approach similar to what has been described previously (Holtje J V (1998) Microbiol Mol Biol Rev 62:181-203). Assays were carried out by using the following condition: NBD-Lipid II, 20 nM protein, 50 mM Tris HCl (pH 8.0), 10 mMCaCl2, 0.085% decyl PEG (Anatrace), and 15% MeOH at 37° C. for 0, 1, 3, 5, 7, 9, 20, and 30 min. The concentration of NBD-Lipid II was varied from 1 to 100 μM to determine the rate of the TG activity. After the reaction, 200 μM moenomycin was added to stop the reaction, and 13 μM muramidase (Sigma-Aldrich) was added to digest the TG products to result in NBD-Lipid II without lipid tails. The fluorescent signal decrease of substrate and increase of NBD-Lipid II without lipid tails were detected by anion-exchange column SAX1 (Supelco) on HPLC (Hitachi). The elution procedures was a linear gradient of ammonium acetate (20 mM to 1 M) in MeOH monitored at λexcitation=466 nm and λemission=535 nm. The kinetic parameter was estimated by following the Michaelis-Menten equation. To investigate the importance of transmembrane (TM) helix, PBP1b and PBP1bΔTM (residues Met-1 to Leu-87 were removed) were extracted with the buffer containing 20 mM Tris-HCl (pH 8.0), 300 mM NaCl, and 13 mM FOS-CHOLINE-14 (Anatrace). The protein was purified by nickel chelation chromatography in the presence of 1 mM DDM. The activity assay was carried out by using the following condition: 12 μM NBD-Lipid II, 20 nM protein, 50 mM Tris-HCl (pH 8.0), 10 mM CaCl2, 0.085% decyl PEG, and 15% MeOH at 37° C. for time 0, 1, 3, 5, 7, 9, 20, and 30 min. The initial velocity was used to compare the activity of full-length PBP1b and PBP1bΔTM.

[3] = system: methicillin-resistant Staphylococcus aureus (ATCC33592, MRSA); experiment: Minimal inhibitory concentration (MIC), MRSA; type: cell-based; settings: for MIC: Staphylococcus aureus, read-out: MIC MRSA
Description: as §1

[4] = system: Escherichia coli (ATCC 25922, EC); experiment: Minimal inhibitory concentration (MIC), EC; type: cell-based
Description: as §1

[5] = system: Mycobacterium smegmatis (ATCC11565, MS); experiment: Minimal inhibitory concentration (MIC), MS; type: cell-based; settings: for MIC MS: Mycobacterium smegmatis ATCC11565; for MIC: Mycolicibacterium smegmatis
Description: as §1

E. coli PBP1b = E. coli PBP1b (Escherichia coli, UniProt P02919); experiment: Fluorescence anisotropy (FA) binding assay; settings: library screening
Description: Fluorescence anisotropy measurements were carried out in triplicates in the wells of 384-well or 1536-well plates using a fluorescence detector that is capable to measure fluorescence anisotropy or fluorescencepolarization. For examples, a laser fluorimetry equipped with a 488 nm laser (IsoCyte) from Blueshift Biotech, Inc., (Sunnyvale, Calif., USA) of aViewlux from Perkin Elmer has been used for the application. Various buffers, salts, pH values, and divalent cations (Ca^++, Mg^++, Co^++) were optimized for fluorescence anisotropy measurements. KD and KI determinations were carried out in 100 mM NaCl, 10 mM Tris, pH 8.0. Fluorescence anisotropy values (A) were calculated using the equation: A=(I∥−G*I^⊥)/(I∥+2G*I^⊥), where I∥ is the fluorescence intensity of emitted light parallel to excitation, I^⊥ is the fluorescence intensity of emitted light perpendicular to excitation, and G is the […] that corrects for instrument bias. The G factor is experimentally determined for each run using the probe-only well as the basal anisotropy.
A high-throughput FA assay for transglycosylase was performed as disclosed in co-pending U.S. application Ser. No. 12/354,717. Concentration-dependent changes in fluorescence anisotropy was observed when E. coli PBP1b bound to F-Moe. The maximum anisotropy value was 0.2. […]
KI and IC50 values were determined from competitive displacement assay. […]

[6] = methicillin-resistant Staphylococcus aureus ATCC33592
[7] = ATCC25922, Escherichia coli ATCC 25922, read-out: MIC EC

T1 sequence (P02919 58-804): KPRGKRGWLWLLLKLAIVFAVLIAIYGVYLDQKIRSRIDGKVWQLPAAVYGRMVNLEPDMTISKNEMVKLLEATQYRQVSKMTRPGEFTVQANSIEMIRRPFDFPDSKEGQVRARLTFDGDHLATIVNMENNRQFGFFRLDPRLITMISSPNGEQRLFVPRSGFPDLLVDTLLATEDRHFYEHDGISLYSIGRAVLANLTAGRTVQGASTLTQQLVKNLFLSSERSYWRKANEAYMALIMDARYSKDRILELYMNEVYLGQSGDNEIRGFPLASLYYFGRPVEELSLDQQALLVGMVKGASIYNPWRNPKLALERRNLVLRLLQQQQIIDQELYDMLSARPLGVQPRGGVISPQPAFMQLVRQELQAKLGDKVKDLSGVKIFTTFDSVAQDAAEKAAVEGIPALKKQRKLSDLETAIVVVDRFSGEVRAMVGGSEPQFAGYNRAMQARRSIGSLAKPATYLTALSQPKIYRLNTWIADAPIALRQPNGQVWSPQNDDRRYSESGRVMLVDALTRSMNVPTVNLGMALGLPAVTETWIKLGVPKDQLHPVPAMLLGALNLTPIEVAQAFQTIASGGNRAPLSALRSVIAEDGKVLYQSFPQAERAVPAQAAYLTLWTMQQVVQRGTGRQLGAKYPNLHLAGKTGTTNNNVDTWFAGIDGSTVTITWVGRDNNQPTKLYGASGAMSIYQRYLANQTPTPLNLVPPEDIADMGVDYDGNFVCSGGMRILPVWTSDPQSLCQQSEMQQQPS
E. coli PBP1b, sequence (P02919 whole entry): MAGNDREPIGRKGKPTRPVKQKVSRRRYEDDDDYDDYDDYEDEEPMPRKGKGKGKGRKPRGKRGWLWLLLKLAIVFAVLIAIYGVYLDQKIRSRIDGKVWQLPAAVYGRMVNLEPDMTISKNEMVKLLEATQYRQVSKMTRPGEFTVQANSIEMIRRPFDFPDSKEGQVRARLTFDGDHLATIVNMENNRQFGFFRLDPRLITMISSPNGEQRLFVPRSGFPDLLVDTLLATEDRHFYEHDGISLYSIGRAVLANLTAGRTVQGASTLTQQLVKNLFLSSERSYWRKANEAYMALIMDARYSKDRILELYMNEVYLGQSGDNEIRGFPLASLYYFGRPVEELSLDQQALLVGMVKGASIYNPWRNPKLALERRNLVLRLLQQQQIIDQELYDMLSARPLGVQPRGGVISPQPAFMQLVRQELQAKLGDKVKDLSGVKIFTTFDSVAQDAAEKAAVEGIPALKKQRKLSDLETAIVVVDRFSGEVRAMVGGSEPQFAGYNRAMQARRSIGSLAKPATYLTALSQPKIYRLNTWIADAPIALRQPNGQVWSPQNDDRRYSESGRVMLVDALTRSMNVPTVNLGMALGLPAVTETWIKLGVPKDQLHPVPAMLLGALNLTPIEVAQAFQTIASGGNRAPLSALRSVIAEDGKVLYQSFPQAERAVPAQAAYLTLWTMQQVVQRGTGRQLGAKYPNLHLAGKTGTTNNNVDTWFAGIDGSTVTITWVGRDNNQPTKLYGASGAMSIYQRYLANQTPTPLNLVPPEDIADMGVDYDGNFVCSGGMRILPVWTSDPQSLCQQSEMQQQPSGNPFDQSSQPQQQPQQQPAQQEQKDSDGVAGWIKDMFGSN
PBP, sequence (P02919 58-804): as the sequence (P02919 58-804) above

Work on `C=C(C/C=C(\C)CCC=C(C)C)CCC(C)(C)/C=C/CC/C(C)=C\CO[C@H](COP(=O)(O)O[C@H]1OC(C(N)=O)[C@@](C)(O)[C@H](OC(N)=O)C1O[C@@H]1OC(CO[C@@H]2OC(CO)[C@@H](O)[C@H](O)C2O)[C@@H](O[C@@H]2OC(C)[C@@H](O[C@@H]3OC(C(=O)NC4=C(O)CCC4=O)[C@H](O)[C@H](O)C3O)[C@H](O)C2NC(C)=O)[C@H](O)C1NC(C)=O)C(=O)O` (stereo partly drawn) [Moe A, Moenomycin A] yielded a Kd (PBP) of 0.44 µM.

`O=C(Nc1cc(Cl)c(Cl)c(Cl)c1)c1cc(Cl)cc(Cl)c1O` [Compound 004] was tested, and the “MIC SA” value [1] was 0.125 µg/mL (≈ 0.324 µM), the remaining activity at 100 µM [2] was 100% and the MIC [3, 6] was 0.5 µg/mL (≈ 1.3 µM). For the same molecule, the MIC [4, 7] was 16 µg/mL (≈ 41.5 µM) and the “MIC MS” value [5] was “≦0.03 μg/ml”.

`O=C(Nc1cc(Cl)cc(C(=O)c2ccccc2)c1Cl)c1cc(Br)cc(Br)c1O` [Compound 116] was tested, and the “MIC SA” value [1] was 1 µg/mL (≈ 1.84 µM), the “TG Activity at various concentration of cmpd: 50 μM” value ([2]; 50 μM compound, TG activity remaining (0% = full inhibition)) was 100% and the “TG Activity at various concentration of cmpd: 100 μM” value ([2]; 100 μM compound, TG activity remaining (0% = full inhibition)) was 0%. The “MIC MRSA” value [3, 6] was 8 µg/mL (≈ 14.7 µM), the “MIC EC” value ([4]; Escherichia coli ATCC 25922) was over 256 µg/mL and the “MIC MS” value [5] was 0.5 µg/mL (≈ 0.919 µM).

For `O=C(Nc1cc(Cl)ccc1Oc1ccccc1)c1cc(Br)cc(Br)c1O` [Compound 009], the MIC ([1]; ATCC29213, Staphylococcus aureus ATCC29213, read-out: MIC SA) was 0.5 µg/mL (≈ 1 µM), the IC50 [2] was 45 µM and the “transglycosylase inhibition activity (in words)” value [2] was “showed inhibition activities”. For the same molecule, the “TG Activity at various concentration of cmpd: 25 μM” value ([2]; 25 μM compound, TG activity remaining (0% = full inhibition)) was 100%, the remaining activity at 50 µM ([2]; read-out: TG Activity at various concentration of cmpd: 50 μM) was 20% and the remaining activity at 100 µM [2] was 0%. For the same molecule, the MIC [3, 6] was 0.25 µg/mL (≈ 0.502 µM), the MIC [4, 7] was over 256 µg/mL and the “inhibition activity in fluorescence anisotropy (in words)” value (E. coli PBP1b) was “showed inhibition activities”. It also gave an MIC ([5]; ATCC11565, Mycobacterium smegmatis ATCC11565, read-out: MIC MS) of 0.25 µg/mL (≈ 0.502 µM).

With `O=C(Nc1ccc(Cl)c(Cl)c1)c1cc(Cl)cc(Cl)c1O` [Compound 003] the MIC ([1]; ATCC29213, read-out: MIC SA) was 0.25 µg/mL (≈ 0.712 µM), the remaining activity at 100 µM [2] was 100% and the MIC [3] was 1 µg/mL (≈ 2.85 µM). It also gave an MIC ([4]; Escherichia coli, ATCC25922, read-out: MIC EC) of 32 µg/mL (≈ 91.2 µM) and an MIC ([5]; ATCC11565, read-out: MIC MS) of 0.06 µg/mL (≈ 0.171 µM).

From patent US9890111B2, “Crystal structure of bifunctional transglycosylase PBP1b from E. coli and inhibitors thereof” (Academia Sinica, priority 2008, dated 2018)
